{
  "source": "PubChem BioAssay (NCI)",
  "experiment_in_all_cases": "growth of human tumour cells (NCI), 48 h",
  "key": {"NCI-H460 lung": {"test_system": "NCI-H460 lung"}, "NCI-H522 lung": {"test_system": "NCI-H522 lung"}, "NCI/ADR-RES ovarian": {"test_system": "NCI/ADR-RES ovarian"}, "OVCAR-3 ovarian": {"test_system": "OVCAR-3 ovarian"}, "OVCAR-4 ovarian": {"test_system": "OVCAR-4 ovarian"}, "OVCAR-5 ovarian": {"test_system": "OVCAR-5 ovarian"}, "OVCAR-8 ovarian": {"test_system": "OVCAR-8 ovarian"}, "PC-3 prostate": {"test_system": "PC-3 prostate"}, "RPMI-8226 leukemia": {"test_system": "RPMI-8226 leukemia"}, "RXF 393 renal": {"test_system": "RXF 393 renal"}, "SF-268 CNS": {"test_system": "SF-268 CNS"}, "SF-295 CNS": {"test_system": "SF-295 CNS"}, "SF-539 CNS": {"test_system": "SF-539 CNS"}, "SK-MEL-2 melanoma": {"test_system": "SK-MEL-2 melanoma"}, "SK-MEL-28 melanoma": {"test_system": "SK-MEL-28 melanoma"}, "SK-MEL-5 melanoma": {"test_system": "SK-MEL-5 melanoma"}, "SK-OV-3 ovarian": {"test_system": "SK-OV-3 ovarian"}, "SN12C renal": {"test_system": "SN12C renal"}, "SNB-19 CNS": {"test_system": "SNB-19 CNS"}, "SNB-75 CNS": {"test_system": "SNB-75 CNS"}, "SR leukemia": {"test_system": "SR leukemia"}, "SW-620 colon": {"test_system": "SW-620 colon"}, "T-47D breast": {"test_system": "T-47D breast"}, "TK-10 renal": {"test_system": "TK-10 renal"}, "U251 CNS": {"test_system": "U251 CNS"}, "UACC-257 melanoma": {"test_system": "UACC-257 melanoma"}, "UACC-62 melanoma": {"test_system": "UACC-62 melanoma"}, "UO-31 renal": {"test_system": "UO-31 renal"}},
  "note": "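Cells were grown in 96-well plates and exposed to each compound for 48 hours at five concentrations; endpoints were interpolated linearly between bracketing concentrations, or set to the highest concentration if not reached. At the GI50, growth is halved. TGI is the concentration that stops growth completely.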",
  "data": [
    {"smiles": "NC(=O)c1cc([N+](=O)[O-])c(Cl)c([N+](=O)[O-])c1", "values": [
      {"measurement": "GI50", "setting": "NCI-H460 lung", "result": 15.7, "unit": "µM"},
      {"measurement": "TGI", "setting": "NCI-H460 lung", "result": 38.2, "unit": "µM"},
      {"measurement": "GI50", "setting": "NCI-H522 lung", "result": 1.94, "unit": "µM"},
      {"measurement": "TGI", "setting": "NCI-H522 lung", "result": 3.57, "unit": "µM"},
      {"measurement": "GI50", "setting": "NCI/ADR-RES ovarian", "result": 3.67, "unit": "µM"},
      {"measurement": "TGI", "setting": "NCI/ADR-RES ovarian", "result": 13.9, "unit": "µM"},
      {"measurement": "GI50", "setting": "OVCAR-3 ovarian", "result": 1.97, "unit": "µM"},
      {"measurement": "TGI", "setting": "OVCAR-3 ovarian", "result": 3.51, "unit": "µM"},
      {"measurement": "GI50", "setting": "OVCAR-4 ovarian", "result": 1.91, "unit": "µM"},
      {"measurement": "TGI", "setting": "OVCAR-4 ovarian", "result": 3.9, "unit": "µM"},
      {"measurement": "GI50", "setting": "OVCAR-5 ovarian", "result": 5.53, "unit": "µM"},
      {"measurement": "TGI", "setting": "OVCAR-5 ovarian", "result": 17.6, "unit": "µM"},
      {"measurement": "GI50", "setting": "OVCAR-8 ovarian", "result": 1.87, "unit": "µM"},
      {"measurement": "TGI", "setting": "OVCAR-8 ovarian", "result": 3.63, "unit": "µM"},
      {"measurement": "GI50", "setting": "PC-3 prostate", "result": 1.91, "unit": "µM"},
      {"measurement": "TGI", "setting": "PC-3 prostate", "result": 4.26, "unit": "µM"},
      {"measurement": "GI50", "setting": "RPMI-8226 leukemia", "result": 2.32, "unit": "µM"},
      {"measurement": "TGI", "setting": "RPMI-8226 leukemia", "result": 5.7, "unit": "µM"},
      {"measurement": "GI50", "setting": "RXF 393 renal", "result": 1.69, "unit": "µM"},
      {"measurement": "TGI", "setting": "RXF 393 renal", "result": 3.11, "unit": "µM"},
      {"measurement": "GI50", "setting": "SF-268 CNS", "result": 4.66, "unit": "µM"},
      {"measurement": "TGI", "setting": "SF-268 CNS", "result": 16.2, "unit": "µM"},
      {"measurement": "GI50", "setting": "SF-295 CNS", "result": 17.3, "unit": "µM"},
      {"measurement": "TGI", "setting": "SF-295 CNS", "result": 31.9, "unit": "µM"},
      {"measurement": "GI50", "setting": "SF-539 CNS", "result": 2.02, "unit": "µM"},
      {"measurement": "TGI", "setting": "SF-539 CNS", "result": 4, "unit": "µM"},
      {"measurement": "GI50", "setting": "SK-MEL-2 melanoma", "result": 13.7, "unit": "µM"},
      {"measurement": "TGI", "setting": "SK-MEL-2 melanoma", "result": 27.8, "unit": "µM"},
      {"measurement": "GI50", "setting": "SK-MEL-28 melanoma", "result": 2.05, "unit": "µM"},
      {"measurement": "TGI", "setting": "SK-MEL-28 melanoma", "result": 4.34, "unit": "µM"},
      {"measurement": "GI50", "setting": "SK-MEL-5 melanoma", "result": 5.59, "unit": "µM"},
      {"measurement": "TGI", "setting": "SK-MEL-5 melanoma", "result": 18, "unit": "µM"},
      {"measurement": "GI50", "setting": "SK-OV-3 ovarian", "result": 16.9, "unit": "µM"},
      {"measurement": "TGI", "setting": "SK-OV-3 ovarian", "result": 30.6, "unit": "µM"},
      {"measurement": "GI50", "setting": "SN12C renal", "result": 1.8, "unit": "µM"},
      {"measurement": "TGI", "setting": "SN12C renal", "result": 3.57, "unit": "µM"},
      {"measurement": "GI50", "setting": "SNB-19 CNS", "result": 15.3, "unit": "µM"},
      {"measurement": "TGI", "setting": "SNB-19 CNS", "result": 29.5, "unit": "µM"},
      {"measurement": "GI50", "setting": "SNB-75 CNS", "result": 4.63, "unit": "µM"},
      {"measurement": "TGI", "setting": "SNB-75 CNS", "result": 17.8, "unit": "µM"},
      {"measurement": "GI50", "setting": "SR leukemia", "result": 1.89, "unit": "µM"},
      {"measurement": "TGI", "setting": "SR leukemia", "result": "> 100", "unit": "µM"},
      {"measurement": "GI50", "setting": "SW-620 colon", "result": 1.9, "unit": "µM"},
      {"measurement": "TGI", "setting": "SW-620 colon", "result": 3.99, "unit": "µM"},
      {"measurement": "GI50", "setting": "T-47D breast", "result": 2.32, "unit": "µM"},
      {"measurement": "TGI", "setting": "T-47D breast", "result": 5.12, "unit": "µM"},
      {"measurement": "GI50", "setting": "TK-10 renal", "result": 1.91, "unit": "µM"},
      {"measurement": "TGI", "setting": "TK-10 renal", "result": 3.36, "unit": "µM"},
      {"measurement": "GI50", "setting": "U251 CNS", "result": 2.31, "unit": "µM"},
      {"measurement": "TGI", "setting": "U251 CNS", "result": 5.61, "unit": "µM"},
      {"measurement": "GI50", "setting": "UACC-257 melanoma", "result": 3.87, "unit": "µM"},
      {"measurement": "TGI", "setting": "UACC-257 melanoma", "result": 15, "unit": "µM"},
      {"measurement": "GI50", "setting": "UACC-62 melanoma", "result": 2.43, "unit": "µM"},
      {"measurement": "TGI", "setting": "UACC-62 melanoma", "result": 7.13, "unit": "µM"},
      {"measurement": "GI50", "setting": "UO-31 renal", "result": 1.77, "unit": "µM"},
      {"measurement": "TGI", "setting": "UO-31 renal", "result": 3.24, "unit": "µM"}
    ]}
  ]
}
